Non-standard residues stand in square brackets, D forms with d. Residues, ends and D or L forms follow the SMILES beside them.
How the values were obtained:
blood glucose = experiment: potentiation of the hypoglycemic effect of insulin in adrenalectomized rats; type: in vivo, rat
gastric acid = experiment: reduction of gastric acid after intravenous administration to the rat; type: in vivo; details: i.v. dose of 30 μg/kg
Experimental: The peptides according to the invention have the inhibitory properties of somatostatin, but their duration of action is considerably longer at lower doses. For example, after intravenous administration to the rat, these peptides reduce gastric acid with an ED50 of about 5 μg/kg. The reduction in gastric acid is maintained for 2 hours. […] A reduction in gastric acid is only brought about by infusing somatostatin. […] The new compounds can also be administered orally and intranasally. However, in these instances considerably higher doses are necessary because of the poorer absorption.

## C[C@@H](O)[C@@H]1NC(=O)[C@H](CCCCN)NC(=O)[C@@H](Cc2c[nH]c3ccccc23)NC(=O)[C@H](Cc2ccccc2)NC(=O)[C@@H]2CCCN2C(=O)[C@H](Cc2ccccc2)NC1=O [cyclo-(Pro-Phe-D-Trp-Lys-Thr-Phe)] (cyclo(PF[dW]KTF))
Blood glucose; dose of as much as 0.318 μg/kg^-1. min^-1
  effect on blood glucose: completely ineffective

## C[C@H](N)C(=O)NCC(=O)N[C@H]1CSSC[C@@H](C(=O)O)NC(=O)[C@H](CO)NC(=O)[C@H]([C@@H](C)O)NC(=O)[C@H](Cc2ccccc2)NC(=O)[C@H]([C@@H](C)O)NC(=O)[C@H](CCCCN)NC(=O)[C@H](Cc2c[nH]c3ccccc23)NC(=O)[C@H](Cc2ccccc2)NC(=O)[C@H](Cc2ccccc2)NC(=O)[C@H](CC(N)=O)NC(=O)[C@H](CCCCN)NC1=O [somatostatin, Somatostatin]
Gastric acid
  effect on gastric acid: no effect whatever

## cyclo-(Aoc-Phe-D-Trp-Lys-Val-Phe)
Blood glucose
  potentiation of the hypoglycemic effect of insulin, effect relative to cyclo-(Pro-Phe-D-Trp-Lys-Thr-Phe): at least twice
Blood glucose; dose of 0.07 μg/kg^-1.min^-1
  reduction of blood glucose: up to 24%

Reference: patent US4621073A, “Cyclic peptides having somatostatin activity” (Hoechst Aktiengesellschaft, priority 1983, dated 1986)
